Assay type in all cases: biochemical
Assay [1] addresses T1, ArgD6803 (N-acetylornithine aminotransferase) (Synechocystis sp. PCC 6803, UniProt P73133).
T1 construct: gene argD; full ORF, N-terminal His10 tag kept, E. coli DH5alpha, Ni-NTA purified
As to the kind of experiment: HPLC of PITC derivatives, glutamate formation. To be noted: 1 mM 2-oxoglutarate, 50 mM K-phosphate, pH 9, room temperature, 1 h.

Assay [2] has as its target T2, ArgD7002 (N-acetylornithine aminotransferase) (Picosynechococcus sp. PCC 7002, UniProt B1XNF8).
T2 construct: gene argD; full ORF, N-terminal His10 tag kept, E. coli DH5alpha, Ni-NTA purified
T2 sequence (B1XNF8 1-418): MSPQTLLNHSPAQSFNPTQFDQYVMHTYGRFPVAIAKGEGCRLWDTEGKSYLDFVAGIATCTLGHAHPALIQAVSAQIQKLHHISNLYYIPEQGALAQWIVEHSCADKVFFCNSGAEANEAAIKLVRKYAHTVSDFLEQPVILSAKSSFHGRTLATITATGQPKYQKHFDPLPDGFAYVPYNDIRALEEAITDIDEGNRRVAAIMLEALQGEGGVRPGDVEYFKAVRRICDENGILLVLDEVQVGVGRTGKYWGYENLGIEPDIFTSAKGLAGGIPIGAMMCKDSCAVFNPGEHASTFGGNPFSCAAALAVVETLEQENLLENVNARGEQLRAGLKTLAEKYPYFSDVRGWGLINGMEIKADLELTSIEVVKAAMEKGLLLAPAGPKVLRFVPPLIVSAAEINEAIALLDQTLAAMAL
As to the kind of experiment: HPLC of PITC derivatives, glutamate formation. Conditions: 1 mM GABA, 1 mM 2-oxoglutarate, 50 mM K-phosphate, pH 9, room temperature, 1 h.

For assay [3], the target named is T3, GadA6803 (glutamate decarboxylase) (Synechocystis sp. PCC 6803, UniProt P73043).
T3 construct: gene gad; full ORF, N-terminal His10 tag kept, E. coli DH5alpha, Ni-NTA purified
As to the kind of experiment: HPLC of PITC derivatives, GABA formation. To be noted: 1 mM glutamate, 50 mM K-phosphate, pH 4.5, room temperature, 1 h.

As to `NCCCC(=O)O` [GABA], the “HPLC of PITC derivatives, glutamate formation” value is “argD6803 or argD7002 was incubated with GABA and 2-oxoglutarate, glutamate was produced” in assay [1] (1 mM GABA); “argD6803 or argD7002 was incubated with GABA and 2-oxoglutarate, glutamate was produced” in assay [2].

Consider `NCCC[C@H](N)C(=O)O` [L-ornithine], for which, in assay [1] (1 mM L-ornithine), the “HPLC of PITC derivatives, glutamate formation” value was “argD6803 or argD7002 was incubated with L-ornithine and 2-OG, glutamate was produced”.

On to `N[C@@H](CCC(=O)O)C(=O)O` [glutamate], for which the “HPLC of PITC derivatives, GABA formation” value in assay [3] was “this protein catalyzes the conversion of glutamate to GABA”.

For the origin of these results see publication PMC5160925 (Frontiers in Microbiology, 2016).
